Results published in the supplement of paper PMC7017272.
± gives the standard deviation of the averaged measurements.

What was measured:
Conditions in all cases: treatment time: 3 days
[1] = system: UT-SCC-24A; experiment: relative IC50 (midpoint of the fitted curve; maximal inhibition may be below 50%); higher = less potent
Procedure: (§1)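 HNSCC cell lines (500 cells/well, 384-well) were cultured on plastic, on top of (2D) or embedded (3D) in Matrigel or human leiomyoma matrix Myogel (500 ug/mL; Myogel 3D mixed with rat collagen I). Cells were treated for 3 days with 5 ten-fold concentrations of each drug, and viability was read by CellTiter-Glo. Viability was normalised to DMSO (0% inhibition) and 100 uM benzethonium chloride (100% inhibition) controls and fitted with the FIMM DSRT pipeline to give IC50 (nM), maximal % inhibition and the drug sensitivity score (DSS). Suffixes _1/_2/_3 on drug names are replicates.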

[2] = system: UT-SCC-24A; experiment: drug sensitivity score (DSS); higher = more sensitive
Procedure: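 HNSCC cell lines (500 cells/well, 384-well) were cultured on plastic, on top of (2D) or embedded (3D) in Matrigel or human leiomyoma matrix Myogel (500 ug/mL; Myogel 3D mixed with rat collagen I). Cells were treated for 3 days with 5 ten-fold concentrations of each drug, and viability was read by CellTiter-Glo. Suffixes _1/_2/_3 on drug names are replicates.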

[3] = system: UT-SCC-42A; experiment: drug sensitivity score (DSS); higher = more sensitive; extreme values may be limits of the assay
In short: (§2)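 Three growth formats were used for HPV-negative HNSCC cell lines in 384-well plates at 500 cells/well: bare plastic, wells coated with Matrigel or Myogel (500 µg/mL), and embedding in Matrigel or Myogel plus rat collagen I. Compounds were added at five 10-fold concentrations, and after 3 days CellTiter-Glo 2.0 luminescence was recorded and normalised to vehicle (0.1% DMSO) and cell-killing control wells. IC50, maximal inhibition and drug sensitivity score came from percent-inhibition dose–response fitting in the FIMM pipeline.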

[4] = system: UT-SCC-14; experiment: as above
In short: as §2

[5] = system: UT-SCC-106A; experiment: as above
In short: as §2

[6] = system: UT-SCC-42B; experiment: as above
In short: as §2

[7] = system: UT-SCC-81; experiment: maximal % inhibition of viability relative to DMSO; higher = stronger effect
Procedure: as §1, with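 “DMSO” for “DMSO (0% inhibition)”, “and” for “and 100 uM”, “chloride” for “chloride (100% inhibition)”, “DSS.” for “the drug sensitivity score (DSS).”, “_1/_2/_3” for “_1/_2/_3 on drug names”, “replicates. Only inhibition-mode (IC50) fits are kept.” for “replicates.”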

[8] = system: UT-SCC-24B; experiment: as above
Procedure: as §1, with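 “DMSO” for “DMSO (0% inhibition)”, “and” for “and 100 uM”, “chloride” for “chloride (100% inhibition)”, “DSS.” for “the drug sensitivity score (DSS).”, “_1/_2/_3” for “_1/_2/_3 on drug names”, “replicates. Only inhibition-mode (IC50) fits are kept.” for “replicates.”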

[9] = system: UT-SCC-28; experiment: as above
Procedure: as §1, with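 “DMSO” for “DMSO (0% inhibition)”, “and” for “and 100 uM”, “chloride” for “chloride (100% inhibition)”, “DSS.” for “the drug sensitivity score (DSS).”, “_1/_2/_3” for “_1/_2/_3 on drug names”, “replicates. Only inhibition-mode (IC50) fits are kept.” for “replicates.”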

[10] = culture condition: on top of Matrigel
[11] = culture condition: on top of Myogel
[12] = culture condition: plastic 2D (no matrix)
[13] = culture condition: embedded in Matrigel
[14] = culture condition: embedded in Myogel + collagen I

relative IC50 [1, 10]: 2.16 nM
relative IC50 [1, 11]: 2.23 nM
relative IC50 [1, 12]: 1.66 nM
SMILES: CO[C@H]1C[C@@H]2CC[C@@H](C)[C@@](O)(O2)C(=O)C(=O)N2CCCC[C@H]2C(=O)O[C@H]([C@H](C)C[C@@H]2CC[C@@H](OC(=O)C(C)(CO)CO)[C@H](OC)C2)CC(=O)[C@H](C)/C=C(\C)[C@@H](O)[C@@H](OC)C(=O)[C@H](C)C[C@H](C)/C=C/C=C/C=C/1C [Temsirolimus]
drug sensitivity score [2, 13]: 10.2 ± 11 DSS
drug sensitivity score [2, 14]: 9.67 ± 2.8 DSS
drug sensitivity score [2, 10]: 4.9 ± 1.3 DSS
drug sensitivity score [2, 11]: 5.03 ± 1.2 DSS
drug sensitivity score [2, 12]: 6.07 ± 0.67 DSS
drug sensitivity score [3, 13]: 4.67 ± 1.3 DSS
drug sensitivity score [3, 14]: 5.23 ± 3.3 DSS
drug sensitivity score [3, 10]: 5.87 ± 1.4 DSS
drug sensitivity score [3, 11]: 6.4 ± 0.35 DSS
drug sensitivity score [3, 12]: 4.5 ± 1.1 DSS
drug sensitivity score [4, 13]: 15.4 ± 0.23 DSS
drug sensitivity score [4, 14]: 14 ± 1.9 DSS
drug sensitivity score [4, 10]: 13.3 ± 0.66 DSS
drug sensitivity score [4, 11]: 13.7 ± 1.3 DSS
drug sensitivity score [4, 12]: 13.1 ± 2.3 DSS
drug sensitivity score [5, 13]: 6.03 ± 1.3 DSS
drug sensitivity score [5, 14]: 5.33 ± 1.3 DSS
drug sensitivity score [5, 10]: 5.93 ± 1 DSS
drug sensitivity score [5, 11]: 3.33 ± 0.21 DSS
drug sensitivity score [5, 12]: 7.6 ± 0.85 DSS
drug sensitivity score [6, 13]: 4 ± 6 DSS
drug sensitivity score [6, 10]: 0 DSS
drug sensitivity score [6, 11]: 0 DSS
drug sensitivity score [6, 12]: 0.933 ± 0.84 DSS
maximal % inhibition of viability [7, 13]: 63.3 ± 16%
maximal % inhibition of viability [7, 14]: 56.5 ± 6%
maximal % inhibition of viability [7, 10]: 44.6 ± 5.2%
maximal % inhibition of viability [7, 11]: 54.3 ± 0.82%
maximal % inhibition of viability [7, 12]: 49.7 ± 7.5%
maximal % inhibition of viability [8, 13]: 25.8 ± 7.9%
maximal % inhibition of viability [8, 14]: 42.2 ± 4%
maximal % inhibition of viability [8, 10]: 27.4 ± 4.7%
maximal % inhibition of viability [8, 11]: 32.7 ± 1.8%
maximal % inhibition of viability [8, 12]: 29.7 ± 5.7%
maximal % inhibition of viability [9, 13]: 29.7 ± 9.9%
maximal % inhibition of viability [9, 14]: 37.2 ± 7.1%
maximal % inhibition of viability [9, 10]: 38 ± 2.7%
